# Source: patent US20230277632A1, “MODIFIED PlySs2 LYSINS AND ANTIBIOTIC COMBINATIONS FOR USE AGAINST GRAM-POSITIVE BACTERIA” (ContraFect Corporation, priority 2020, published 2023)
# Several values for one entry are separate records, joined by “and”; a condition that tells them apart may be missing. Equal entries are not always repeated.
# Legend:
# [1] = test system: S. aureus isolates; assay: In vivo efficacy of daptomycin in combination with pp296, neutropenic murine thigh infection model; conditions: 24 h; for Replicate Log10 CFU/thigh data: daptomycin alone
# Procedure: Study animals: Specific pathogen-free female ICR mice (average body weight 23 grams) were provided food and water ad libitum and maintained and used in accordance with National Research Council recommendations. Animals were allowed a 48-hour post-delivery acclimation period before every experiment. Mice were rendered transiently neutropenic by injection of cyclophosphamide via intraperitoneal (IP) route at a dose of 150 mg/kg of body weight at four days before bacterial inoculation and 100 mg/kg of body weight at one day before bacterial inoculation.
# Neutropenic Thigh Infection Model: Two transfers of the bacterial isolates were performed onto trypticase soy agar plates with 5% sheep blood and placed into an incubator at 37° C. for approximately 24 hours. After an 18-24 hour incubation of the second transfer, a suspension of approximately 10^7 CFU/mL was made for inoculation. Final bacterial inoculum concentrations were confirmed by serial dilution and plating techniques. Thigh infection with the test isolate was produced by intramuscular injection of 0.1 mL of the bacterial inoculum into each thigh of the mice. Antimicrobial therapy was initiated 2 hours after bacterial inoculation, as detailed below.
# Untreated control mice (n=3) were sacrificed just prior to antibiotic administration and 24 hours after bacterial inoculation. Animals sacrificed prior to antibiotic initiation served as 0-hour control animals, representing initial bacterial burden. […] Treatment mice (n=3/group) were sacrificed at the end of the 24 hour treatment period. After sacrifice, both thighs for each mouse were homogenized in normal saline. Serial dilutions were plated on Trypticase soy agar with 5% sheep blood and incubated for 18 to 20 hours at 37.0 to determine the CFU. Efficacy was calculated as the change in bacterial density obtained in treated mice after 24 hours compared with the numbers in the 0-hour control animals. Bacterial density represents the average CFU determined from 3 mice, each contributing 2 thighs.
# For the 4 S. aureus isolates HPV107, CAIRD426, JMI227, and NRS123, the following sub-therapeutic daptomycin dosage regimen was adopted: 0.76 mg/kg at 0 hrs, 0.4 mg/kg at 4 hrs, 0.24 mg/kg at 10 hrs, and 0.12 mg/kg at 17 hrs.
# [2] = test system: S. aureus isolates; assay: MIC determination (broth microdilution) against 8 S. aureus isolates; type: cell-based; conditions: CAMHB Ca^2+, unit assumed
# Procedure: Suitable methods for assessing the activity of a modified lysin polypeptide as disclosed herein are well known in the art and described in the examples. […] For example, MIC values for a modified lysin polypeptide may be determined against e.g., laboratory Staphylococcus aureus strains, in e.g., Mueller-Hinton broth or Mueller-Hinton broth supplemented with serum, such as horse serum.
# The pp296 MICs were determined based on (1) cation-adjusted Mueller-Hinton Broth with 25% horse serum and 0.5 mM DTT (caMHB-HSD); (2) human serum (100% serum); and (3) ICR mice (100% serum). Vancomycin and daptomycin MICs of the isolate strains were determined in accordance with the broth microdilution method as outlined by CLSI. Results of the MIC determination are shown below in Table 2. The bacterial isolates were frozen at −80° C. in skim milk.
# [3] = test system: S. aureus; assay: pp296 dose fractionation study, neutropenic murine thigh infection model; type: in vivo; conditions: sub-therapeutic daptomycin SC alone, 24 h
# Procedure: Each of the pp296 TDDs was fractionated into three regimens, i.e., one-third of the entire dose was administered via IV three times (q8h); one-half of the entire does was administered via IV two times (q12h), or the entire dose was administered via IV once daily over a 24-hour period, for a total of three groups per each TDD.
# Untreated control mice (n=3/group) were sacrificed just prior to antibiotic administration, as well as 24 hours later. Animals sacrificed prior to antibiotic administration served as 0-hour control animals, representing initial bacterial burden. The 24-hour control animals received sterile normal saline in the same volume and schedule as the most frequent active drug regimen. […] After the 24-hour treatment period, all animals were euthanized and thighs were cultured quantitatively as described above. The change in bacterial density was calculated for each of the dosing regimen. Comparisons were made between the different regimens of the same total daily dose on bacterial burdens at 24 hours using one-way Analysis of Variance (ANOVA) test followed by Tukey's test where the P value was 0.05.
smiles,measurement,setting,value
"CCCCCCCCCC(=O)N[C@@H](Cc1c[nH]c2ccccc12)C(=O)N[C@H](CC(N)=O)C(=O)N[C@@H](CC(=O)O)C(=O)N[C@@H]1C(=O)NCC(=O)N[C@@H](CCCN)C(=O)N[C@@H](CC(=O)O)C(=O)N[C@H](C)C(=O)N[C@@H](CC(=O)O)C(=O)NCC(=O)N[C@H](CO)C(=O)N[C@@H]([C@H](C)CC(=O)O)C(=O)N[C@@H](CC(=O)c2ccccc2N)C(=O)O[C@@H]1C [Daptomycin, daptomycin]",Replicate Log10 CFU/thigh data,"[1]; isolate ATCC2921, 0.475/0.25/0.15/0.075 mg/kg at 0/4/10/17 hrs",8.02 Log10 CFU/thigh and 8.04 Log10 CFU/thigh and 7.79 Log10 CFU/thigh and 8.03 Log10 CFU/thigh and 6.18 Log10 CFU/thigh and 7.38 Log10 CFU/thigh
same,Replicate Log10 CFU/thigh data,"[1]; isolate CAIRD426, 0.76/0.4/0.24/0.12 mg/kg at 0/4/10/17 hrs",8.16 Log10 CFU/thigh and 8.20 Log10 CFU/thigh and 7.59 Log10 CFU/thigh and 8.18 Log10 CFU/thigh and 7.47 Log10 CFU/thigh and 7.35 Log10 CFU/thigh
same,Replicate Log10 CFU/thigh data,"[1]; isolate HPV107, 0.76/0.4/0.24/0.12 mg/kg at 0/4/10/17 hrs",7.16 Log10 CFU/thigh and 7.34 Log10 CFU/thigh and 7.24 Log10 CFU/thigh and 7.08 Log10 CFU/thigh and 6.74 Log10 CFU/thigh and 5.77 Log10 CFU/thigh
same,Replicate Log10 CFU/thigh data,"[1]; isolate JMI227, 0.76/0.4/0.24/0.12 mg/kg at 0/4/10/17 hrs",5.93 Log10 CFU/thigh and 6.08 Log10 CFU/thigh and 6.48 Log10 CFU/thigh and 6.73 Log10 CFU/thigh and 6.86 Log10 CFU/thigh and 6.89 Log10 CFU/thigh
same,Replicate Log10 CFU/thigh data,"[1]; isolate JMI4789, 0.475/0.25/0.15/0.075 mg/kg at 0/4/10/17 hrs",8.00 Log10 CFU/thigh and 6.85 Log10 CFU/thigh and 8.63 Log10 CFU/thigh and 8.52 Log10 CFU/thigh and 8.14 Log10 CFU/thigh and 7.21 Log10 CFU/thigh
same,Replicate Log10 CFU/thigh data,"[1]; isolate NRS100, 0.475/0.25/0.15/0.075 mg/kg at 0/4/10/17 hrs",4.83 Log10 CFU/thigh and 5.29 Log10 CFU/thigh and 6.67 Log10 CFU/thigh and 7.76 Log10 CFU/thigh and 6.20 Log10 CFU/thigh and 7.09 Log10 CFU/thigh
same,Replicate Log10 CFU/thigh data,"[1]; isolate NRS123, 0.76/0.4/0.24/0.12 mg/kg at 0/4/10/17 hrs",6.73 Log10 CFU/thigh and 7.28 Log10 CFU/thigh and 6.86 Log10 CFU/thigh and 7.09 Log10 CFU/thigh and 5.81 Log10 CFU/thigh and 6.81 Log10 CFU/thigh
same,Replicate Log10 CFU/thigh data,"[1]; isolate NRS217, 0.475/0.25/0.15/0.075 mg/kg at 0/4/10/17 hrs",7.94 Log10 CFU/thigh and 7.84 Log10 CFU/thigh and 7.89 Log10 CFU/thigh and 7.92 Log10 CFU/thigh and 8.01 Log10 CFU/thigh and 8.02 Log10 CFU/thigh
same,average bacterial growth vs starting inoculum,"[1]; sub-therapeutic daptomycin alone, 8 isolates",1.47±0.80 log10 CFU/thigh
same,MIC Daptomycin (CAMHB Ca^2+),[2]; ATCC 29213 MSSA,1 µg/mL
same,MIC Daptomycin (CAMHB Ca^2+),[2]; CAIRD426 MRSA,1 µg/mL
same,MIC Daptomycin (CAMHB Ca^2+),[2]; HPV107 MRSA,0.5 µg/mL
same,MIC Daptomycin (CAMHB Ca^2+),[2]; JMI227 MRSA,0.5 µg/mL
same,MIC Daptomycin (CAMHB Ca^2+),[2]; JMI4789 MRSA,1 µg/mL
same,MIC Daptomycin (CAMHB Ca^2+),[2]; NRS100 (COL) MRSA,0.5 µg/mL
same,MIC Daptomycin (CAMHB Ca^2+),[2]; NRS123 (MW2) MRSA,1 µg/mL
same,MIC Daptomycin (CAMHB Ca^2+),[2]; NRS271 MRSA/LRSA,0.5 µg/mL
same,bacterial burden vs 0-hour control mice,[3],0.82±0.44 log10 CFU/thigh
